In one test the test system is HCT116 WT cells. The test can be described thus: HCT116 WT cell proliferation / viability (CellTiter-Glo, 6 days). The test is classed as cell-based. The note with it: HCT116 WT cells, 6 days, CellTiter-Glo, read-out: HCT-116 WT IC50. Summed up:
(§1)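 CellTiter-Glo luminescence, 6-day exposure, RPMI 1640 + 10% FBS. Dosing: 1:3 series (8-9 pts, top 1 or 10 μM) or 1:2 series (22 pts, top 10 or 50 μM), DMSO control. IC50 = 50% of control via curve fit.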
In general terms: Cellular ATP, detected with luciferase, serves as a proxy for viable cell number.

In the next test the test system is HCT116 MTAP null cells. The experiment in a line: HCT116 MTAP null cell proliferation / viability (CellTiter-Glo, 6 days). The class given is cell-based. As to conditions: for IC50: HCT116 MTAP null cells, 6 days, CellTiter-Glo, read-out: HCT-116 MTAP null IC50. In short, it runs like this:
as §1

This is an account of results in patent US20240101570A1 (AMGEN INC., priority 2020, published 2024).

Like-named read-outs stand apart in the source and are kept apart here. Some results are limits rather than exact numbers.

In general, IC50 refers to the midpoint of a concentration-inhibition curve. For `CC(c1ncccn1)N(Cc1ccc(C(F)(F)F)cn1)C(=O)c1ccc2nc(N)c3c(c2c1)COC3` (racemic) [Example 640, 4-amino-N-((1R)-1-(2-pyrimidinyl)ethyl)-N-((5-(trifluoromethyl)-2-pyridinyl)methyl)-1,3-dihydrofuro[3,4-c]quinoline-8-carboxamide and 4-amino-N-((1S)-1-(2-pyrimidinyl)ethyl)-N-((5-(trifluoromethyl)-2-pyridinyl)methyl)-1,3-dihydrofuro[3,4-c]quinoline-8-carboxamide], the IC50 came to 110 nM with HCT116 WT cells (Homo sapiens, HCT-116, 144 h) and 13 nM in the test on HCT116 MTAP null cells (HCT116-MTAP null, 144 h).

For the compound `COc1ccc(CN(C(=O)c2ccc3nc(N)c4c(c3c2)CCC4)[C@H](C)c2ncccn2)nn1` (single isomer, unassigned) [Example 646], the IC50 in the test with HCT116 WT cells (Homo sapiens, HCT-116, 144 h) amounted to 263 nM; in the test on HCT116 MTAP null cells (HCT116-MTAP null, 144 h), 19 nM. In addition, the “potency of enantiomer relative to the other enantiomer, measured by IC50 in HCT116 MTAP null cell viability assay” value in the test with HCT116 MTAP null cells (HCT116 MTAP null, comparison of the two SFC-separated enantiomers) is “more potent”.

With `Cn1ncc2c(N)nc3ccc(C(=O)N(Cc4ccc(C(F)(F)F)nn4)C4CC4)cc3c21` [Example 790, 4-amino-N-cyclopropyl-1-methyl-N-((6-(trifluoromethyl)-3-pyridazinyl)methyl)-1H-pyrazolo[4,3-c]quinoline-8-carboxamide], the IC50 came to 47100 nM in the test on HCT116 WT cells (Homo sapiens, HCT-116, 144 h) and 776 nM in the test on HCT116 MTAP null cells (HCT116-MTAP null, 144 h).

With `CC1OCc2c1c(N)nc1ccc(C(=O)N(Cc3ccc(C(F)(F)F)cn3)Cc3ccnc4[nH]ccc34)cc21` (stereo not shown) [Example 916, N-((1H-pyrrolo[2,3-b]pyridin-4-yl)methyl)-4-amino-3-methyl-N-((5-(trifluoromethyl)pyridin-2-yl)methyl)-1,3-dihydrofuro[3,4-c]quinoline-8-carboxamide], the IC50 with HCT116 WT cells (Homo sapiens, HCT-116, 144 h) was determined as 200 nM; in the test with HCT116 MTAP null cells (HCT116-MTAP null, 144 h), 6 nM.

`N#CC[C@@H](C1CC1)N(Cc1ccc(C#N)cn1)C(=O)c1ccc2nc(N)c3c(c2c1)COC3` (single isomer, unassigned) [Example 582]: the IC50 amounted to 558 nM with HCT116 WT cells (Homo sapiens, HCT-116, 144 h) and 36 nM with HCT116 MTAP null cells (HCT116-MTAP null, 144 h).

In the case of `CN(Cc1ccc(C(F)(F)F)cn1)C(=O)c1cc2c3c(c(N)nc2cc1F)COC3` [Example 475, 4-amino-7-fluoro-N-methyl-N-((5-(trifluoromethyl)-2-pyridinyl)methyl)-1,3-dihydrofuro[3,4-c]quinoline-8-carboxamide], the IC50 with HCT116 WT cells (Homo sapiens, HCT-116, 144 h) stood at 7810 nM; in the test with HCT116 MTAP null cells (HCT116-MTAP null, 144 h) it was 375 nM.

In the case of `CCN(Cc1ccc(C(F)(F)F)cn1)C(=O)c1cc2c3c(c(N)nc2nc1Cl)COC3` [Example 537, 4-amino-7-chloro-N-ethyl-N-((5-(trifluoromethyl)-2-pyridinyl)methyl)-1,3-dihydrofuro[3,4-c][1,8]naphthyridine-8-carboxamide], the IC50 worked out at 5390 nM in the test with HCT116 WT cells (Homo sapiens, HCT-116, 144 h) and 222 nM in the test with HCT116 MTAP null cells (HCT116-MTAP null, 144 h).

As to `N#Cc1ccc(CN(C(=O)c2cc3c4c(c(N)nc3cc2Cl)COC4)C2CC2)nc1` [Example 461, 4-amino-7-chloro-N-((5-cyano-2-pyridinyl)methyl)-N-cyclopropyl-1,3-dihydrofuro[3,4-c]quinoline-8-carboxamide], the IC50 with HCT116 WT cells (Homo sapiens, HCT-116, 144 h) amounted to 4500 nM; in the test on HCT116 MTAP null cells (HCT116-MTAP null, 144 h) it was 69 nM.

In the case of `CO[C@@H]1CCOC[C@H]1N(Cc1ccc(C#N)c(C)n1)C(=O)c1ccc2nc(N)c3c(c2c1)COC3` (single isomer, unassigned) [Example 583], the IC50 in the test on HCT116 WT cells stood at 4820 nM; in the test with HCT116 MTAP null cells it was 173 nM.

With `CC1OCc2c1c(N)nc1ccc(C(=O)N(Cc3ccc(C(F)(F)F)cn3)C3CC3C3CC3)cc21` (stereo not shown) [Example 904, N-([1,1′-bi(cyclopropan)]-2-yl)-4-amino-3-methyl-N-((5-(trifluoromethyl)pyridin-2-yl)methyl)-1,3-dihydrofuro[3,4-c]quinoline-8-carboxamide], the IC50 was 1600 nM in the test with HCT116 WT cells (Homo sapiens, HCT-116, 144 h) and 31 nM in the test on HCT116 MTAP null cells (HCT116-MTAP null, 144 h).

As to `Nc1nc2cc(F)c(C(=O)N(Cc3ccc(C(F)(F)F)nn3)C3CCC3)cc2c2c1COC2` [Example 501, 4-amino-N-cyclobutyl-7-fluoro-N-((6-(trifluoromethyl)-3-pyridazinyl)methyl)-1,3-dihydrofuro[3,4-c]quinoline-8-carboxamide], the IC50 came out at 1200 nM in the test with HCT116 WT cells (Homo sapiens, HCT-116, 144 h) and 46 nM in the test with HCT116 MTAP null cells (HCT116-MTAP null, 144 h).

Consider `C[C@H](c1ncccn1)N(Cc1ccc(C(F)F)cn1)C(=O)c1ccc2nc(N)c3c(c2c1)CCC3` [Example 623, 4-amino-N-((5-(difluoromethyl)-2-pyridinyl)methyl)-N-((1R)-1-(2-pyrimidinyl)ethyl)-2,3-dihydro-1H-cyclopenta[c]quinoline-8-carboxamide], for which the IC50 is 148 nM with HCT116 WT cells (Homo sapiens, HCT-116, 144 h) and 15 nM with HCT116 MTAP null cells (HCT116-MTAP null, 144 h).

Regarding `C[C@H]1OCc2c1c(N)nc1ccc(C(=O)N(Cc3ccc(C(F)(F)F)cn3)CC3CC3)cc21` [Example 334, (3R)-4-amino-N-(cyclopropylmethyl)-3-methyl-N-((5-(trifluoromethyl)-2-pyridinyl)methyl)-1,3-dihydrofuro[3,4-c]quinoline-8-carboxamide], the IC50 in the test on HCT116 WT cells (Homo sapiens, HCT-116, 144 h) turned out to be 509 nM; in the test on HCT116 MTAP null cells (HCT116-MTAP null, 144 h), 10 nM.

For `Nc1nc2cc(Cl)c(C(=O)N(Cc3ccc(C(F)(F)F)cn3)CC3CC3)cc2c2c1COC2` [Example 464, 4-amino-7-chloro-N-(cyclopropylmethyl)-N-((5-(trifluoromethyl)-2-pyridinyl)methyl)-1,3-dihydrofuro[3,4-c]quinoline-8-carboxamide], the IC50 was found to be 240 nM in the test on HCT116 WT cells (Homo sapiens, HCT-116, 144 h) and 7 nM in the test on HCT116 MTAP null cells (HCT116-MTAP null, 144 h).

On to `C[C@H](c1ccc(C(F)(F)F)cn1)N(C(=O)c1cc2c3c(c(N)nc2cn1)COC3)c1cnn(C)c1` (single isomer, unassigned) [Example 825], for which the IC50 was determined as 276 nM in the test on HCT116 WT cells (Homo sapiens, HCT-116, 144 h) and 22 nM in the test on HCT116 MTAP null cells (HCT116-MTAP null, 144 h).

As for `CN(Cc1ccc(Cl)cn1)C(=O)c1cc2c3c(c(N)nc2cn1)COC3` [Example 694, 4-amino-N-((5-chloro-2-pyridinyl)methyl)-N-methyl-1,3-dihydrofuro[3,4-c][1,7]naphthyridine-8-carboxamide], the IC50 is more than 10000 nM in the test on HCT116 WT cells (Homo sapiens, HCT-116, 144 h) and 415 nM in the test on HCT116 MTAP null cells (HCT116-MTAP null, 144 h).

For the compound `Cc1cc2nc(N)c3cnn(C)c3c2cc1C(=O)N(C)Cc1ccc(F)cn1` [Example 516, 4-amino-N-((5-fluoro-2-pyridinyl)methyl)-N,1,7-trimethyl-1H-pyrazolo[4,3-c]quinoline-8-carboxamide], the IC50 with HCT116 WT cells (Homo sapiens, HCT-116, 144 h) was found to be 9320 nM; with HCT116 MTAP null cells (HCT116-MTAP null, 144 h), 167 nM.

Regarding `C[C@H](c1ccc(S(F)(F)(F)(F)F)cc1)N(C)C(=O)c1cc2c(cc1F)nc(N)c1cnn(C)c12` (single isomer, unassigned) [Example 870], the IC50 in the test on HCT116 WT cells (Homo sapiens, HCT-116, 144 h) is 162 nM; in the test on HCT116 MTAP null cells (HCT116-MTAP null, 144 h) it was 7 nM.

Consider `CN(Cc1ccc(-c2cnn(C(F)(F)F)c2)nn1)C(=O)c1ccc2nc(N)c3cnn(C)c3c2c1` [Example 529, 4-amino-N,1-dimethyl-N-((6-(1-(trifluoromethyl)-1H-pyrazol-4-yl)-3-pyridazinyl)methyl)-1H-pyrazolo[4,3-c]quinoline-8-carboxamide], for which the IC50 with HCT116 WT cells (Homo sapiens, HCT-116, 144 h) is 28500 nM; with HCT116 MTAP null cells (HCT116-MTAP null, 144 h), 887 nM.

On to `Nc1nc2cnc(C(=O)N(Cc3ccc(C(F)(F)F)cn3)CC(F)(F)F)cc2c2c1COC2` [Example 486, 4-amino-N-(2,2,2-trifluoroethyl)-N-((5-(trifluoromethyl)-2-pyridinyl)methyl)-1,3-dihydrofuro[3,4-c][1,7]naphthyridine-8-carboxamide], for which the IC50 with HCT116 WT cells (Homo sapiens, HCT-116, 144 h) was determined as 17500 nM; in the test with HCT116 MTAP null cells (HCT116-MTAP null, 144 h) it was 445 nM.

As for `N#Cc1ccc(CN(CC2(C#N)CC2)C(=O)c2ccc3nc(N)c4c(c3c2)COC4)nc1` [Example 457, 4-amino-N-((1-cyanocyclopropyl)methyl)-N-((5-cyano-2-pyridinyl)methyl)-1,3-dihydrofuro[3,4-c]quinoline-8-carboxamide], the IC50 amounted to 3180 nM in the test with HCT116 WT cells (Homo sapiens, HCT-116, 144 h) and 132 nM in the test with HCT116 MTAP null cells (HCT116-MTAP null, 144 h).

As to `CCN(Cc1ccc(C(F)(F)F)cn1)C(=O)c1ccc2nc(N)c3cnn(C)c3c2c1` [Example 546, 4-amino-N-ethyl-1-methyl-N-((5-(trifluoromethyl)-2-pyridinyl)methyl)-1H-pyrazolo[4,3-c]quinoline-8-carboxamide], the IC50 with HCT116 WT cells (Homo sapiens, HCT-116, 144 h) was 976 nM; with HCT116 MTAP null cells (HCT116-MTAP null, 144 h), 19 nM.

Take `N#Cc1ccc(CN(C(=O)c2ccc3nc(N)c4c(c3c2)COC4)C2CC2)nc1` [Example 454, 4-amino-N-((5-cyano-2-pyridinyl)methyl)-N-cyclopropyl-1,3-dihydrofuro[3,4-c]quinoline-8-carboxamide]: the IC50 with HCT116 WT cells (Homo sapiens, HCT-116, 144 h) is 17900 nM; with HCT116 MTAP null cells (HCT116-MTAP null, 144 h), 550 nM.

On to `CCN(C(=O)c1ccc2nc(N)c3c(c2c1)COC3)[C@@H](C)c1ccc(C(F)(F)F)cn1` (single isomer, unassigned) [Example 821], for which the IC50 was more than 50000 nM in the test with HCT116 WT cells (Homo sapiens, HCT-116, 144 h) and 4190 nM in the test with HCT116 MTAP null cells (HCT116-MTAP null, 144 h).

For the compound `CC(C)N(Cc1ccc(Br)nn1)C(=O)c1ccc2nc(N)c3c(c2c1)CO[C@@H]3C` [Example 332, (3R)-4-amino-N-((6-bromo-3-pyridazinyl)methyl)-3-methyl-N-(2-propanyl)-1,3-dihydrofuro[3,4-c]quinoline-8-carboxamide], the IC50 in the test on HCT116 WT cells (Homo sapiens, HCT-116, 144 h) stood at 6100 nM; in the test with HCT116 MTAP null cells (HCT116-MTAP null, 144 h), 120 nM.

For `C[C@H](c1ncccn1)N(Cc1ccc(C(F)F)cn1)C(=O)c1ccc2nc(N)c3c(c2c1)COC3` [Example 438, 4-amino-N-((5-(difluoromethyl)-2-pyridinyl)methyl)-N-((1R)-1-(2-pyrimidinyl)ethyl)-1,3-dihydrofuro[3,4-c]quinoline-8-carboxamide], the IC50 with HCT116 WT cells (Homo sapiens, HCT-116, 144 h) was determined as 187 nM; in the test on HCT116 MTAP null cells (HCT116-MTAP null, 144 h), 12 nM.

With `CCN(Cc1ccc(S(F)(F)(F)(F)F)cc1)C(=O)c1ccc2nc(N)c3cnn(C)c3c2c1` [Example 564, 4-amino-N-ethyl-1-methyl-N-(4-(pentafluoro-lambda~6~- sulfanyl)benzyl)-1H-pyrazolo[4,3-c]quinoline-8-carboxamide], the IC50 in the test with HCT116 WT cells (Homo sapiens, HCT-116, 144 h) stood at 925 nM; with HCT116 MTAP null cells (HCT116-MTAP null, 144 h) it was 21 nM.
